According to paper PMC2265061, “Compound Cytotoxicity Profiling Using Quantitative High-Throughput Screening” (Environmental Health Perspectives, 2007):
Entries after “also recorded” stand apart in the source; their conditions may differ. Read-outs that look alike come from different tables or passages of the source.

Experiments:
HEK293 = assay type: cell-based
Protocol: (§1) We measured cell viability using a luciferase-coupled ATP quantitation assay (CellTiter-Glo; Promega, Madison, WI). In this assay, luminescent signal is proportional to amount of ATP and thus to the number of metabolically competent cells; cell injury and death result in a dramatic decrease in intracellular ATP levels ([Crouch et al. 1993]). Cells were dispensed at 1,000–2,000 cells/5 μL/well in tissue-culture treated 1,536-well white/solid bottom assay plates (Greiner Bio-One North America, Monroe, NC) using a Flying Reagent Dispenser (Aurora Discovery, Carlsbad, CA). All but Jurkat cells (which are grown in suspension) were incubated at 37°C for 5–6 hr to allow for cell attachment, followed by addition of compounds via pin tool (Kalypsys, San Diego, CA). […] At the end of the incubation period, 5 μL of CellTiter-Glo reagent was added, plates were incubated at room temperature for 30 min, and the luminescence intensity of each well was determined using a ViewLux plate reader (PerkinElmer, Shelton, CT).
(§2) Compound formatting and qHTS were performed as described previously ([Inglese et al. 2006]).
(§3) Analysis of compound concentration–response data was performed as previously described ([Inglese et al. 2006]). […] Compound activity correlations between different assays or experiments were assessed by calculating the Pearson correlation coefficient. […]

[1] = tested on: 13 human and rodent cell types; conditions: for Species selectivity of cytotoxicity (human versus rodent cell types): nine human versus four rodent cell types
Description: Human renal mesangial cells obtained from adult kidney tissue were kindly provided by J. Kopp (National Institute of Diabetes and Digestive and Kidney Diseases, NIH, Bethesda, MD). Rat renal proximal tubule cells were freshly isolated from rat kidney by In Vitro ADMET Laboratories, LLC (Rockville, MD). All cells chosen for testing represent target tissues of interest in toxicology from both human and rodent sources; most were transformed lines, but some were nontransformed or primary cells. All are well-characterized cells, produce uniform populations, are relatively easy to culture, and are amenable to a 1,536-well format.
as §1, with “In this assay, luminescent signal is proportional to amount of ATP and thus to the number of metabolically competent cells; cell injury and death result in a dramatic decrease in intracellular ATP levels ([Crouch et al. 1993]).” left out
(§4) Class 1 or 2 compounds were further divided into subclasses based on efficacy and quality of fit (R^2). Compounds with R^2 > 0.9 and high (> 80%) efficacy were designated as subclass a, and compounds with R^2 > 0.9 and low efficacies (30–80%) as subclass b. […] Compound activity correlations between different assays or experiments were assessed by calculating the Pearson correlation coefficient. Hierarchical clustering of compound activity patterns across different assays was performed within Spotfire DecisionSite 8.2 (Spotfire Inc., Cambridge, MA) using the correlation of log IC50 values as the similarity metric.

HepG2 cells = test: Real-time cell electronic sensing (RT-CES) cytotoxicity assay; assay type: cell-based, Human; conditions: HepG2, RT-CES impedance, 0.14 to 100 μM
Protocol: HepG2 cells in the presence of compounds at concentrations from 0.14 to 100 μM were monitored by measurements of electrical impedance (ACEA Biosciences Inc., San Diego, CA) every 10 min for the first hour, then every hour for 70–90 hr.

NIH 3T3 = assay type: cell-based, Mouse
Protocol: as §1, §2, §3

SH-SY5Y = tested on: SH-SY5Y
Protocol: as §1, §2
as §4, with “Analysis of compound concentration–response data was performed as previously described ([Inglese et al. 2006]). […] Concentration–response titration points for each compound were fitted to the Hill equation ([Hill 1910]), yielding concentrations of half-maximal inhibition (IC50) and maximal response (efficacy) values. […] Class” for “Class”

MRC-5 = conditions: MRC-5, mean ± SD
Protocol: as §1, §2
as §4, with “Analysis of compound concentration–response data was performed as previously described ([Inglese et al. 2006]). […] Concentration–response titration points for each compound were fitted to the Hill equation ([Hill 1910]), yielding concentrations of half-maximal inhibition (IC50) and maximal response (efficacy) values. […] Class” for “Class”

Mesangial = conditions: mean ± SD
Protocol: as §1, §2
as §4, with “Analysis of compound concentration–response data was performed as previously described ([Inglese et al. 2006]). […] Concentration–response titration points for each compound were fitted to the Hill equation ([Hill 1910]), yielding concentrations of half-maximal inhibition (IC50) and maximal response (efficacy) values. […] Class” for “Class”

[2] = tested on: Rat kidney proximal tubule; conditions: mean ± SD
Protocol: as §1, §2
as §4, with “Analysis of compound concentration–response data was performed as previously described ([Inglese et al. 2006]). […] Concentration–response titration points for each compound were fitted to the Hill equation ([Hill 1910]), yielding concentrations of half-maximal inhibition (IC50) and maximal response (efficacy) values. […] Class” for “Class”

SK-N-SH = conditions: mean ± SD
Protocol: as §1, §2
as §4, with “Analysis of compound concentration–response data was performed as previously described ([Inglese et al. 2006]). […] Concentration–response titration points for each compound were fitted to the Hill equation ([Hill 1910]), yielding concentrations of half-maximal inhibition (IC50) and maximal response (efficacy) values. […] Class” for “Class”

N2a = conditions: mean ± SD
Protocol: as §1, §2
as §4, with “Analysis of compound concentration–response data was performed as previously described ([Inglese et al. 2006]). […] Concentration–response titration points for each compound were fitted to the Hill equation ([Hill 1910]), yielding concentrations of half-maximal inhibition (IC50) and maximal response (efficacy) values. […] Class” for “Class”

Jurkat = conditions: mean ± SD
Protocol: as §1, §2
as §4, with “Analysis of compound concentration–response data was performed as previously described ([Inglese et al. 2006]). […] Concentration–response titration points for each compound were fitted to the Hill equation ([Hill 1910]), yielding concentrations of half-maximal inhibition (IC50) and maximal response (efficacy) values. […] Class” for “Class”

HUV-EC-C = conditions: mean ± SD
Protocol: as §1, §2
as §4, with “Analysis of compound concentration–response data was performed as previously described ([Inglese et al. 2006]). […] Concentration–response titration points for each compound were fitted to the Hill equation ([Hill 1910]), yielding concentrations of half-maximal inhibition (IC50) and maximal response (efficacy) values. […] Class” for “Class”

H-4-II-E = conditions: mean ± SD
Protocol: as §1, §2
as §4, with “Analysis of compound concentration–response data was performed as previously described ([Inglese et al. 2006]). […] Concentration–response titration points for each compound were fitted to the Hill equation ([Hill 1910]), yielding concentrations of half-maximal inhibition (IC50) and maximal response (efficacy) values. […] Class” for “Class”

HepG2 = conditions: HepG2, mean ± SD
Protocol: as §1, §2
as §4, with “Analysis of compound concentration–response data was performed as previously described ([Inglese et al. 2006]). […] Concentration–response titration points for each compound were fitted to the Hill equation ([Hill 1910]), yielding concentrations of half-maximal inhibition (IC50) and maximal response (efficacy) values. […] Class” for “Class”

BJ = conditions: mean ± SD
Protocol: as §1, §2
as §4, with “Analysis of compound concentration–response data was performed as previously described ([Inglese et al. 2006]). […] Concentration–response titration points for each compound were fitted to the Hill equation ([Hill 1910]), yielding concentrations of half-maximal inhibition (IC50) and maximal response (efficacy) values. […] Class” for “Class”

Question: How did the Cell type-selective toxicity (HEK293; in HEK293 cells) turn out when Cc1ccc2c(c1[N+](=O)[O-])C(=O)c1ccccc1C2=O [2-methyl-1-nitroanthraquinone] was run?
Answer: selective toxicity

Question: C[C@@H]1C[C@@H]([C@H](O)CC2CC(=O)NC(=O)C2)C(=O)[C@@H](C)C1 [cycloheximide] was tested. Which “Cytotoxicity pattern across the 13 cell types” value ([1]; human, rat, mouse) did it give?
Answer: cytotoxic in all but two cell types (MRC-5 and SH-SY5Y)

Question: And the “Kinetic response (cell index over time)” value (HepG2 cells)?
Answer: inhibited cell proliferation but did not decrease cell number below what was present at the time of addition

Question: With C[C@@H]1CC[C@@]2(OC1)O[C@H]1[C@@H](O)[C@H]3[C@@H]4CC[C@H]5C[C@@H](O[C@@H]6O[C@H](CO)[C@H](O[C@@H]7O[C@H](CO)[C@@H](O)[C@H](O[C@@H]8OC[C@@H](O)[C@H](O)[C@H]8O)[C@H]7O[C@@H]7O[C@H](CO)[C@H](O)[C@H](O[C@@H]8O[C@H](CO)[C@@H](O)[C@H](O)[C@H]8O)[C@H]7O)[C@H](O)[C@H]6O)[C@H](O)C[C@]5(C)[C@H]4CC[C@]3(C)[C@H]1[C@@H]2C [digitonin] as the compound, how does the “Cytotoxicity pattern across the 13 cell types” value ([1]; 0.59 nM to 92 μM, 40 hr) read?
Answer: cytotoxicity in all cell types at similar concentrations; also recorded: cytotoxic in all 13 cell types; also recorded: uniformly toxic across all cell types

Question: And the “Exposure time to full cytotoxicity” value (HepG2 cells)?
Answer: 10 min

Question: Which “Species selectivity of cytotoxicity (human versus rodent cell types)” value (“Species selectivity of cytotoxicity” below) [1] does the source give for C[C@H]1O[C@@H](O[C@H]2[C@@H](O)C[C@H](O[C@H]3[C@@H](O)C[C@H](O[C@H]4CC[C@@]5(C)[C@H](CC[C@@H]6[C@@H]5C[C@@H](O)[C@]5(C)[C@@H](C7=CC(=O)OC7)CC[C@]65O)C4)O[C@@H]3C)O[C@@H]2C)C[C@H](O)[C@@H]1O [digoxin] here?
Answer: more toxic to human cells

Question: CN(C)c1ccc(N=Nc2ccccc2)cc1 [dimethylaminoazobenzene] was tested. Which “Species selectivity of cytotoxicity” value [1] did it give?
Answer: more toxic to rodent cells

Question: O=C(Nc1ccccc1)Nc1ccccc1 [diphenylurea] was tested. Which “Species selectivity of cytotoxicity” value [1] did it give?
Answer: toxicity in cells from one species but not the other

Question: For COc1cccc2c1C(=O)c1c(O)c3c(c(O)c1C2=O)C[C@@](O)(C(=O)CO)C[C@@H]3O[C@H]1C[C@H](N)[C@H](O)[C@H](C)O1 [doxorubicin], which “Cytotoxicity pattern across the 13 cell types” value ([1]; 0.59 nM to 92 μM, 40 hr) is on record?
Answer: toxic in all cell types; also recorded: cytotoxic in all 13 cell types

Question: What about the “Exposure time to complete cytotoxicity” value (HepG2 cells) of the same compound?
Answer: 35 h

Question: Which “Cytotoxicity pattern across the 13 cell types” value [1] does the source give for CN(C)c1ccc(C(=C2C=CC(=[N+](C)C)C=C2)c2ccc(N(C)C)cc2)cc1.[Cl-] [hexamethyl-p-rosaniline chloride] here?
Answer: cytotoxicity in all cell types at similar concentrations

Question: How did the “Cytotoxicity pattern across the 13 cell types” value [1] turn out when CN(C)c1ccc(C(=C2C=CC(=[N+](C)C)C=C2)c2ccccc2)cc1.CN(C)c1ccc(C(=C2C=CC(=[N+](C)C)C=C2)c2ccccc2)cc1.O=C(O)C(=O)O.O=C([O-])C(=O)O.O=C([O-])C(=O)O [malachite green oxalate] was run?
Answer: cytotoxicity in all cell types at similar concentrations

Question: [CH3][Hg][Cl] [methyl mercuric (II) chloride] was tested. Which “Potency in NIH 3T3 relative to the next most responsive cell type” value (NIH 3T3) did it give?
Answer: 50 fold

Question: Which “Cytotoxicity pattern across the 13 cell types” value ([1]; 0.59 nM to 92 μM, 40 hr) does the source give for Cl.N=C1C=CC(=C(c2ccc(N)cc2)c2ccc(N)cc2)C=C1 [pararosaniline hydrochloride] here?
Answer: cytotoxicity in all cell types at similar concentrations

Question: For CC(=O)[O][Hg][c]1ccccc1 [phenyl mercuric acetate], which “Cytotoxicity pattern across the 13 cell types” value [1] is on record?
Answer: uniformly toxic across all cell types

Question: Which “Cytotoxicity pattern across the 13 cell types” value [1] does the source give for [K+].[K+].[O]=[Cr](=[O])([O-])[O][Cr](=[O])(=[O])[O-] [potassium dichromate] here?
Answer: cytotoxic in all 13 cell types

Question: What about the “Exposure time to complete cytotoxicity” value (HepG2 cells) of the same compound?
Answer: 35 h

Question: For CC/C(=C(\c1ccccc1)c1ccc(OCCN(C)C)cc1)c1ccccc1 [tamoxifen], which Hill coefficient (SH-SY5Y; SH-SY5Y, mean ± SD) is on record?
Answer: 3.1 ± 0.7

Question: What about the Hill coefficient (MRC-5) of the same compound?
Answer: 2.9 ± 1.2

Question: What about the Hill coefficient (Mesangial) of the same compound?
Answer: 2.4 ± 0.8

Question: And the Hill coefficient [2]?
Answer: 4.7 ± 0.3

Question: What about the Hill coefficient (SK-N-SH) of the same compound?
Answer: 3.4 ± 0.7

Question: And the Hill coefficient (N2a)?
Answer: 4.0 ± 0.8

Question: What about the Hill coefficient (Jurkat) of the same compound?
Answer: 2.0 ± 0.2

Question: And the Hill coefficient (HUV-EC-C)?
Answer: 4.2 ± 0.5

Question: And the Hill coefficient (H-4-II-E)?
Answer: 2.7 ± 0.8

Question: And the Hill coefficient (HepG2)?
Answer: 4.4 ± 0.5

Question: What about the Hill coefficient (BJ) of the same compound?
Answer: 3.1 ± 1.0

Question: What about the Hill coefficient (NIH 3T3; NIH 3T3, mean ± SD) of the same compound?
Answer: 2.6 ± 0.8

Question: What about the Hill coefficient (HEK293; HEK293, mean ± SD) of the same compound?
Answer: 3.8 ± 1.0

Question: How did the “Potency in SH-SY5Y relative to the next most responsive cell type” value (SH-SY5Y; more potent in SH-SY5Y) turn out when CN(C)C(=S)SSC(=S)N(C)C [tetra-methylthiuram disulfide] was run?
Answer: 250 fold
